Our source for the MLC values is ChEMBL document CHEMBL1158893, “New icetexane and 20 norabietane diterpenes with trypanocidal activity from Dracocephalum komarovi” (2003).

The test system of the experiment is Trypanosoma cruzi. In words: Trypanocidal activity against Trypanosoma cruzi epimastigotes. In kind it is functional.

Values after ≈ are worked out from the molar mass of the structure shown.

Molecule `CC(C)c1c(O)c2c(c3c1OCO3)C[C@@]1(O)CCCC(C)(C)[C@@H]1CC2=O` [CYCLOCOULTERONE] displayed an MLC of 20 µM (≈ 7.21 µg/mL).
In the case of `COc1c(O)c2c(c(O)c1C(C)C)C(=O)C[C@H]1[C@]3(C)CCC[C@]21OC3` [DRACOCEPHALONE A] it was 200 µM (≈ 69.3 µg/mL); in that of `CN(C)c1ccc(C(=C2C=CC(=[N+](C)C)C=C2)c2ccc(N(C)C)cc2)cc1.[Cl-]` [GENTIAN VIOLET], 6.3 µM.
In the case of `COC1=C(C(C)C)C(=O)C2=C(C[C@@]34CCCC(C)(C)[C@@H]3C[C@]2(O)O4)C1=O` [KOMAROVIQUINONE] it was 0.4 µM (≈ 0.144 µg/mL).
